Patent US20230077723A1, “N-SUBSTITUTED-3,4-(FUSED 5-RING)-5-PHENYL-PYRROLIDINE-2-ONE COMPOUNDS AS INHIBITORS OF ISOQC AND/OR QC ENZYME” (Scenic Immunology B.V., priority 2019, published 2023)

Legend:
human isoQC (S53-L382) [1] = biological target: T1, human isoQC (S53-L382) (Homo sapiens, UniProt Q9NXS2); assay: Assay 1 - isoQC inhibition, fluorescent enzymatic assay (single concentration); format: biochemical; conditions: isoQC inhibition at 250 nM test compound; read-out: isoQc Inh. Assay No. 1
T1 construct: enzymatically active region of human isoQC (S53-L382; see, e.g., Huang et al., 2011); GST-Enterokinase site (N, cleaved yes); made in house; host or cells: E. coli
Description: Initially, isoQC inhibitory activity was measured at a single concentration in a fluorescent-based assay (Assay 1 below). In order to establish the inhibitory activity more quantitatively, IC50 values were obtained using a mass spectrometry-based assay where pyroglutamylation by either isoQC or QC was measured (Assays 2 and 4, respectively, below). Alternatively, IC50 values for isoQC or QC were obtained using a fluorescence-based assay (Assays 3 and 5 respectively, below).
(§1) The Golgi luminal, enzymatically active region of human isoQC (S53-L382; see, e.g., Huang et al., 2011) was obtained by expression in E. coli of an N-terminally GST-Enterokinase and C-terminally 6×His tagged construct in the pET41(+) vector and subsequent purification using talon beads and GST beads, enterokinase digestion and further purification with a final formulation in 25 mM Tris pH 8.0/150 mM NaCl/1 mM TCEP. Absence of pyroglutamylating activity in an enzymatic dead variant that was cloned, expressed, and purified in parallel ruled out that the purification strategy isolates any endogenously present pyroglutamylating activity.
Pyroglutamylation was measured by conversion of glutamine-4-amino-7-methylcoumarine (H-Gln-AMC, Bachem) to pyroglutamyl-AMC, which is subsequently a specific substrate for pyroglutamylaminopeptidase (pGAPase, Qiagen), releasing free AMC which can be fluorescently detected. For a typical inhibition assay, 15 μL 20 μM h-Gln-AMC (diluted from a 40 mM stock dissolved in 25 mM HEPES using 50 mM Tris-HCl pH 8.0) was pipetted into a 96-well plate on ice. Next, 7.5 μL 1 μM test compound (diluted from a 10 mM stock dissolved in DMSO using 50 mM Tris-HCl) was added. Finally, 7.5 μL, 3 ng/μL recombinant isoQC enzyme was added and the reaction mixture was incubated for 1 hour at 37° C. A 5 minute incubation at 98° C. was then performed to denature the isoQC enzyme and stop the reaction.
To detect the amount of pyroglutamyl-AMC formed, a 96-well plate was prepared with 25 μL 0.125 U/mL pGAPase enzyme diluted in 50 mM Tris-HCl pH 8.0 containing 10 mM dithiothreitol (DTT). 25 μL of the pyroglutamylation reaction mixture was transferred into the plate containing the pGAPase solutions while on ice. Once done, the plate was moved over to a Spectramax ID3 fluorescent plate-reader to monitor and record the maximum fluorescence at 380 nm excitation/450 nm emission over a period of 20 minutes while keeping the temperature at 37° C.
DMSO concentrations during the assay never exceeded 1% and activities were compared to controls containing only the same amount of DMSO and no test compound. […] Test compounds were reported as active when <40% of background corrected signal was measured as compared to DMSO controls.

human isoQC (S53-L382) [2] = biological target: T1, human isoQC (S53-L382); assay: Assay 2 - isoQC potency, mass spectrometry-based enzymatic potency assay; format: biochemical; conditions: mass spectrometry read-out, 7.5 nM isoQC, 10 μM H-Gln-AMC; read-out: isoQc Pot. Assay No. 2
Description: as §1
(§2) EC50's of test compounds were determined by incubating 11-point two-fold dilutions of test compound in 20 μL volumes in the presence of 7.5 nM isoQC and 10 μM H-Gln-AMC using 50 mM Tris-HCl pH 8.0 as assay buffer for 2 hours at room temperature before stopping the reaction by the addition of 2 volumes of methanol. Both the substrate and the product of this reaction were read out using an Agilent RapidFire microfluidic solid phase sample extraction system coupled to an AB Sciex API 4000 triple quadrupole mass spectrometer, in negative ion mode, at m/z of 301.9 and 284.9 respectively. The actual readout was defined as P/(S+P), where P is the product signal area and S the substrate signal area. EC50's were calculated by four parameter sigmoidal model fitting.

recombinant human QC = biological target: T2, recombinant human QC (Homo sapiens, UniProt Q16769); assay: Assay 4 - QC potency, mass spectrometry-based enzymatic potency assay; format: biochemical; conditions: mass spectrometry read-out; read-out: QC Pot. Assay No. 4
T2 construct: His6 (N); purchased R&D Systems
Description: as §2
EC50's of test compounds were determined in the same way as described in Assay 2 above, except that N-terminally His6-tagged recombinant human QC (R&D Systems) was used instead of isoQC.

[3] = tested on: pyroglutamylated CD47 (pE-CD47) in KBM7 cells; assay: Assay 6 - cell-based potency assay (pE-CD47 CC2C6 staining vs total CD47); set-up: species or system human; conditions: Homo sapiens, KBM-7, 72 h, CC2C6 signal, read-out: Cell Pot. Assay No. 6
Description: Cells were spun for 4 minutes at 1500 rpm and washed once with PBS/0.5% BSA. Cells were spun down again and the supernatant was removed and incubated in 100 uL antibody staining solution (PBS/0.5% BSA/0.1 μg/mL DAPI (4′,6-diamidino-2-phenylindole, ThermoFisher Scientific) and a mixture of 1:500 FITC-conjugated anti-human CD47 clone 2D3, which recognizes total CD47 irrespective of its pyroglutamylation state, and 1:500 Alexa647-conjugated anti-human CD47 clone CC2C6, which specifically detects pyroglutamylated CD47) for 2 hours at 4° C. Next, the cells were spun down and washed twice with 2×150 μL PBS/0.5% BSA to remove unbound antibody. Cells were again spun down and taken up in 300 μL FACS buffer before analysis on a Celesta FACS machine (BD Biosciences).
KBM7 cells (Kotecki et al., 1999) were infected with lentivirus produced by transfecting pSCNC-LentiCRISPR-QPCTL or pSCNC-LentiCRISPR-CD47 into HEK-293T cells according to standard protocols. After 24 hours incubation, cells were selected with puromycin (Invivogen, 1 μg/mL) for 48 hours. Cells were stained for total CD47 and pE-CD47 and QPCTL k.o. cells were sorted out as negative for pE-CD47, and CD47 k.o. cells as negative for total CD47, using a FACSAria III and FACS Diva software (BD Biosciences).
In order to test compounds for their effect on pyroglutamylation in live cells, 25000 KBM7 cells per well were seeded in a 96-well U-bottom plate in 150 μl IMDM/10% FCS/1% Pen/Strep medium and a 10-point 2-fold dilution range of test compounds. After 72 hours incubation at 37° C., 5% CO2, cells were stained for total CD47 and pE-CD47 and analyzed on a BD Celesta using FACS Diva software (BD Biosciences). Cells gated for DAPI negativity were recorded and the median fluorescence intensity (MFI) of each sample was transformed to linearly scale between the MFI's of wildtype and CD47 knockout cells (in case of the 2D3 antibody) and the wildtype and QPCTL knockout cells (in case of the CC2C6 antibody). IC50's were calculated by 3 parameter logistic regression of the CC2C6 signal vs. compound concentration, where the top of the sigmoidal curve was fixed at 1, using R and the drc package (http://www.r-project.org, https://cran.r-project.org/web/packages/drc/index.html).

T1 sequence (Q9NXS2 53-382): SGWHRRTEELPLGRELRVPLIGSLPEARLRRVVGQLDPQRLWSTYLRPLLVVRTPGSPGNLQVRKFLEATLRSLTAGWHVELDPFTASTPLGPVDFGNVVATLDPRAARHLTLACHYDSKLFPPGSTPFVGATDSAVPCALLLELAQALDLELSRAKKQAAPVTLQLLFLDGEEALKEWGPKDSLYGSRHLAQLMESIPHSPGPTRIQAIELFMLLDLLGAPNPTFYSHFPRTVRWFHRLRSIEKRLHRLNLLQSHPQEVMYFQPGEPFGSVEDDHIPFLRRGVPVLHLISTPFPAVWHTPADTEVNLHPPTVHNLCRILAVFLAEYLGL
T2 sequence (Q16769 29-361): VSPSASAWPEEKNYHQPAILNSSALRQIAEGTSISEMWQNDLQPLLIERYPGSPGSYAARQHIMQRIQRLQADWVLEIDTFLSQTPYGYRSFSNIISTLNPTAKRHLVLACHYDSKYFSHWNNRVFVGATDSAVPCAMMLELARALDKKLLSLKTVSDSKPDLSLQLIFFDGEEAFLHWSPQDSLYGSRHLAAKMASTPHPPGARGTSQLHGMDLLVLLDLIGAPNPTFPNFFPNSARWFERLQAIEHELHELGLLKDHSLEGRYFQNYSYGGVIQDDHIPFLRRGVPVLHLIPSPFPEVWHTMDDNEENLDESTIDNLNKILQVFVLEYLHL

| Structure (SMILES) | inhibition at 0.25 µM (human isoQC (S53-L382) [1]) | IC50 (human isoQC (S53-L382) [2]) | IC50 (recombinant human QC) | IC50 [3] |
| --- | --- | --- | --- | --- |
| CCCOc1ccc(C2c3c(nn(C)c3C)C(=O)N2c2ccn3ccnc3c2)cc1 (centres unmarked) [FRPPO-009] | > 40% | 25 to 100 nM | 100 to 5000 nM | 1000 to 5000 nM |
| CCCOc1ccc(C2c3c(nn(CC(F)F)c3C)C(=O)N2c2ccc3[nH]cnc3c2)cc1 (centres unmarked) [FRPPO-032] | ≤ 40% | 100 to 5000 nM | 100 to 5000 nM | 1000 to 5000 nM |
| Cc1c2c(nn1C)C(=O)N(c1ccc3[nH]cnc3c1)C2c1ccc(N2CCCCC2=O)cc1 (centres unmarked) [FRPPO-017] | > 40% | 25 to 100 nM | 25 to 100 nM | ≥ 50000 nM |
| CCCOc1ccc(C2c3c(nn(C(C)C)c3C)C(=O)N2c2ccc3[nH]cnc3c2)cc1 (centres unmarked) [FRPPO-030] | > 40% | 100 to 5000 nM | 100 to 5000 nM | 1000 to 5000 nM |
| CCCOc1ccc(C2c3c(nn(C4CCOCC4)c3C)C(=O)N2c2ccc3[nH]cnc3c2)cc1 (centres unmarked) [FRPPO-035] | > 40% | 100 to 5000 nM | 100 to 5000 nM | 1000 to 5000 nM |
| Cc1c2c(nn1C)C(=O)N(c1ccc3[nH]cnc3c1)C2c1ccc(OCC(C)(F)F)c(F)c1F (centres unmarked) [FRPPO-019] | > 40% | 25 to 100 nM | < 25 nM | < 1000 nM |
| Cc1c2c(nn1C)C(=O)N(c1ccc3[nH]cnc3c1)C2c1cc(F)cc(F)c1F (centres unmarked) [FRPPO-013] | > 40% | 25 to 100 nM | 25 to 100 nM | 1000 to 5000 nM |
| CCCOc1ccc(C2c3c(nn(CC)c3C)C(=O)N2c2ccc3[nH]cnc3c2)cc1 (centres unmarked) [FRPPO-029] | > 40% | 25 to 100 nM | 100 to 5000 nM | < 1000 nM |
| Cc1c2c(nn1C)C(=O)N(c1ccc3[nH]cnc3c1)C2c1ccc(-c2ccccn2)cc1 (centres unmarked) [FRPPO-014] | > 40% | < 25 nM | 25 to 100 nM | 1000 to 5000 nM |
| CCCOc1ccc(C2c3c(nn(C)c3C3CC3)C(=O)N2c2ccc3[nH]cnc3c2)cc1 (centres unmarked) [FRPPO-006] | > 40% | 25 to 100 nM | 100 to 5000 nM | < 1000 nM |
| Cc1c2c(nn1C)C(=O)N(c1ccc3[nH]cnc3c1)C2c1ccc(N2CCC(F)(F)C2)cc1F (centres unmarked) [FRPPO-028A] | > 40% | < 25 nM | 25 to 100 nM | < 1000 nM |
| COc1ccc(C2c3c(nn(C)c3C)C(=O)N2c2ccc3[nH]cnc3c2)cc1O (centres unmarked) [FRPPO-018] | > 40% | < 25 nM | < 25 nM | 5000 to 50000 nM |
| Cc1c2c(nn1C)C(=O)N(c1ccc3[nH]cnc3c1)C2c1ccc(N2CCS(=O)(=O)CC2)cc1 (centres unmarked) [FRPPO-027] | > 40% | < 25 nM | < 25 nM | 1000 to 5000 nM |
| Cc1c2c(nn1C)C(=O)N(c1ccc3[nH]cnc3c1)C2c1ccc(N2CCC(C)(C)C2=O)cc1 (centres unmarked) [FRPPO-010] | > 40% | 25 to 100 nM | 25 to 100 nM | 1000 to 5000 nM |
| Cc1c2c(nn1C)C(=O)N(c1ccc3[nH]cnc3c1)C2c1ccc(N2CCCC2=O)cc1 (centres unmarked) [FRPPO-016] | > 40% | < 25 nM | 25 to 100 nM | 5000 to 50000 nM |
| Cc1c2c(nn1C)C(=O)N(c1ccc3[nH]cnc3c1)C2c1cccc(F)c1F (centres unmarked) [FRPPO-012] | > 40% | < 25 nM | 25 to 100 nM | < 1000 nM |
| CCCOc1ccc(C2c3c(nn(C)c3C)C(=O)N2c2ccc3[nH]cnc3c2)c(C)c1 (centres unmarked) [FRPPO-003] | > 40% | 25 to 100 nM | 100 to 5000 nM | < 1000 nM |
| CCCOc1ccc(C2c3c(nn(C)c3C)C(=O)N2c2ccc3[nH]cnc3c2)c(Cl)c1 (centres unmarked) [FRPPO-004] | > 40% | < 25 nM | 25 to 100 nM | < 1000 nM |
| Cc1c2c(nn1C)C(=O)N(c1ccc3[nH]cnc3c1)C2c1ccc(N2CCCCCC2=O)cc1 (centres unmarked) [FRPPO-011] | > 40% | 25 to 100 nM | 100 to 5000 nM | ≥ 50000 nM |
| CCCOc1ccc(C2c3c(nn(C4CCC4)c3C)C(=O)N2c2ccc3[nH]cnc3c2)cc1 (centres unmarked) [FRPPO-033] | > 40% | 100 to 5000 nM | 100 to 5000 nM | 1000 to 5000 nM |
